The values below come from patent US11413261B2, “Pharmaceutical composition for treating cancer comprising lactate metal salt” (METIMEDI PHARMACEUTICALS CO., LTD, priority 2014, dated 2022).

Structures are written as SMILES.

The subject of one test is GLUT 1 and HK2. Briefly: GLUT 1 and HK2 expression under hypoxia (real-time PCR, Western blot). It is filed as cell-based, human. The note with it: HCT-116 and HT-29; hypoxia condition. How it is done: Human colorectal cancer cell lines (HCT-116 and HT-29) were cultured under normoxia or hypoxia condition. The cell lines cultured under the hypoxia condition were treated with calcium lactate, and then, expression levels of GLUT 1 and HK2 in each of the cultured cell lines were compared at the mRNA and protein expression levels (FIG. 7).

The subject of test [1] is human colorectal cancer cell line (HT-29). Put plainly: Colony-forming ability, anticancer drug in combination with calcium lactate (6-well plates). The test is classed as cell-based. The note with it: 2.5 mM calcium lactate alone, vs control. How it is done: Human colorectal cancer cell line (HT-29) with the cell number of 1×10^3 cells were seeded into an RPMI1640 medium in each of 6-well plates. […]. Then, the colony-forming abilities of the cells were compared. In this case, a human colorectal cancer cell line (HT-29) untreated with any drug was used as a control group (FIGS. 46a and 46b).
Human colorectal cancer cell line (HT-29) with the cell number of 1×10^3 cells were seeded into an RPMI1640 medium in each of 6-well plates. […]. Then, the colony-forming abilities of the cells were compared. In this case, a human colorectal cancer cell line (HT-29) untreated with any drug was used as a control group (FIGS. 48a and 48b).
Human colorectal cancer cell line (HT-29) with the cell number of 1×10^3 cells were seeded into an RPMI1640 medium in each of 6-well plates. […]. Then, the colony-forming abilities of the cells were compared. In this case, a human colorectal cancer cell line (HT-29) untreated with any drug was used as a control group (FIG. 55).

Test [2] relates to PARP. Briefly: PARP protein expression in melanoma cell lines. The test is classed as cell-based, human. The note with it: SKMEL-02 and SKMEL-28; with increasing concentration (0-10 mM), 12 hours. How it is done: Each of human melanoma cell lines (SKMEL-02 and SKMEL-28) cultured in a cancer cell culture medium (RPMI1640 medium including 10% FBS and 1% penicillin/streptomycin) at 37° C. with 5% CO2 was treated with 0 mM, 0.5 mM, 1.0 mM, 2.5 mM, 5.0 mM, or 10 mM calcium lactate for 12 hours. Then, protein expression levels of PARP expressed in the melanoma cell lines were compared (FIG. 10).

Test [3] has as its system PARP. Put plainly: PARP expression in tumor tissue of xenograft animal model. The test is classed as in vivo, Balb/c mice. The following applies: HT-29 tumor tissue; 2.5 mM P.O. or 2.5 mM I.T.; vs control group. The method, then: (§1) A colorectal cancer cell (HT-29) cultured in an RPMI1640 medium and then diluted with PBS was subcutaneously implanted into the flank of Balb/c mice. The mice were bred until the colorectal cancer cell grew to about 5 mm. Then, four groups were set up; a control group untreated with calcium lactate for 30 days, an experimental group 1 (peroral, P.O.) administered with 2.5 mM calcium lactate by oral administration, an experimental group 2 (intra tumor, I.T) injected with 2.5 mM calcium lactate around tumor, and an experimental group 3 (subcutaneous, S.C) subcutaneously injected with 25 mM calcium lactate (FIG. 27).
Colorectal cancer tissues were extracted from the mice of the control group, the experimental group 1, or the experimental group 2 set up in Example 10-1, and expression levels of PARP and truncated PARP contributing to stabilization of cancer cells expressed therein were compared (FIG. 28).

In test [4] the test system is PARP. Briefly: PARP protein expression in breast cancer cell lines (Western blot). The test is classed as cell-based, human. How it is done:
Human breast cancer cell lines (MCF-7 and MDA-MB-231) were cultured by the same method as that of Example 2-1 except that they were treated with 0 mM, 2.5 mM, or 5.0 mM calcium lactate, and the cultured cancer cells were obtained. Then, changes in expression level depending on the concentration of calcium lactate was analyzed at the protein expression levels of PARP included therein (FIG. 8). In this case, the change in expression level was analyzed through a Western blot using the Image-J program with anti-PARP antibody as a primary antibody and anti-rabbit IgG conjugate as a secondary antibody, and GAPDH was used as internal control groups.

Test [5] deals with colorectal cancer cell (HT-29). Put plainly: Tumor volume and morphology in HT-29 implanted animal model. The test is classed as in vivo, Balb/c mice. The method, then: as §1
The volumes of colorectal cancer tissues extracted from the mice of the control group or the experimental group 1 set up in Example 10-1 were measured over time and compared with each other (FIG. 30).
The volumes of colorectal cancer tissues extracted from the mice of the control group or the experimental group 2 set up in Example 10-1 were measured over time and compared with each other (FIG. 32).
The tumor morphologies of the mice of the control group or the experimental group 2 set up in Example 10-1 were compared with each other (FIG. 33).
The volumes of colorectal cancer tissues extracted from the mice of the control group or the experimental group 3 set up in Example 10-1 were measured over time and compared with each other (FIG. 34).
The tumor morphologies of the mice of the control group or the experimental group 3 set up in Example 10-1 were compared with each other (FIG. 35).

Test [6] concerns human vascular endothelial cell (HUVEC). Briefly: Tube formation of HUVEC in culture supernatants of treated cancer cell lines. The test is classed as cell-based. From the text: A human vascular endothelial cell (HUVEC) was inoculated into each of the obtained culture supernatant and cultured to analyze a conformational change of cells (FIG. 17). In this case, an HUVEC cultured using the culture medium of a cancer cell line cultured without treating with calcium lactate was used as a control group, and an HUVEC cultured with the treatment with Sulforaphane, which is a growth inhibitor of an HUVEC, was used as a comparison group.

The next test concerns MDA-MB231 cell line. Briefly: Cell apoptosis rate by flow cytometry (FITC Annexin V / PI). It is filed as cell-based. The following applies: 2.5 mM, 24 hours (untreated 10.17%). How it is done: (§2) Breast cancer cell lines (MCF-7 and MDA-MB231) were cultured for 24 hours with or without treating with 2.5 mM calcium lactate. Each of the breast cancer cell lines were treated with 5 μl of FITC Annexin V and 5 μl of PI and reacted at room temperature for 15 minutes and then, a flow cytometry analysis was conducted thereto using a FACS Calibur (BD Bioscience, USA) to evaluate staining thereof and thus measure a cancer cell apoptosis rate (FIG. 21a-21f).
Background: Flow cytometry measures light scatter and fluorescence of single cells or particles in a stream.

In the next test the test system is MCF-7 cell line. The test is described as above. The following applies: 2.5 mM, 24 hours (untreated 9.63%). It is filed as cell-based. The method, then:
as §2

Test [7] concerns human colorectal cancer cell lines (HCT-116 and HT-29). Briefly: Lactate level in cancer cells (lactate assay kit). The test is classed as cell-based. The following applies: 2.5 mM, medium with 3 mM or 11 mM glucose, vs untreated. The method, then:
The cells cultured in Example 2-1 were cultured again in a medium including 3 mM (low) or 11 mM (normal) glucose. The cultured cells were disrupted by ultrasonication. The concentration of lactate included in the disrupted cells was measured using a lactate assay kit (AbCam, Cambridge, Mass.) (FIG. 3). In this case, cancer cells untreated with calcium lactate were used as control groups.

For `CC(O)C(=O)[O-].CC(O)C(=O)[O-].[Ca+2]` (centres unmarked) [calcium lactate], the “expression levels of GLUT 1 and HK2 (activation of glycolysis)” value in the test with GLUT 1 and HK2 is “reduced”. Besides, the colony-forming ability result in [1] is on record as “suppressed”. Further, the “protein expression levels of PARP” value is “decreased” in the test on PARP [2]; “decreased” in the test with PARP [4] (MCF-7 and MDA-MB-231, with increasing concentration (0, 2.5, 5.0 mM)). Further, the PARP degrading activity entry in the test with PARP [3] was “increased”. In addition, in the test on PARP [4] (MCF-7 cell line, 0, 2.5, 5.0 mM), the “protein expression levels of the truncated PARP” value is reported as “increased”. Besides, the tumor morphology result in test [5] (2.5 mM injected around tumor) was “decreased in size with decreased angiogenesis”; in test [5] (25 mM subcutaneously injected) it was “greatly decreased in size and angiogenesis is also reduced”. The final tumor volume result in [5] (25 mM subcutaneously injected, 30 days (control about 2300)) is “about 80 mm^3”. The “tube-forming ability of HUVEC” value is reported as “reduced tube-forming ability similar to the comparison group treated with Sulforaphane” in test [6] (culture supernatant of cancer cell line treated with 2.5 mM) and “reduced tube-forming ability” in test [6] (culture supernatants of cancer cell lines treated with 0.5, 1, 1.5, 2.5 mM for 24 hours, vs control). In addition, the results for the cell apoptosis rate in the test on MDA-MB231 cell line and in the test with MCF-7 cell line were 13.05% and 33.8%, respectively. Further, in test [7], the “concentration of lactate in cancer cells” value was “increased”.
